Measured values reported in the supplement of paper PMC10307832.

Key:
Assay in all cases: relative viability (nuclei count vs DMSO), 5 days (fraction); higher = more cells survive
[1] = compound: NC(=O)c1ccc(N(C(N)=O)c2c(F)cccc2F)nc1-c1ccc(F)cc1F [VX-702] + CC(=O)c1c(C)c2cnc(Nc3ccc(N4CCNCC4)cn3)nc2n(C2CCCC2)c1=O [Palbociclib] (partner 0.5 µM)
Procedure, shortened: (§1)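 Nuclei were stained with Hoechst during a one-step fixation (final 0.05% Triton X-100, 1% formaldehyde, 1 ug/ml Hoechst) carried out 5 days after dosing, then counted on 4× images. The cells, lung cancer lines in 1536-well plates, had been dosed by pin tool the day after seeding with one drug alone or a fixed anchor-drug dose plus five library-drug doses (not always all listed) in √10 steps. Relative viability is the nuclei count in treated wells divided by that in vehicle wells, and each value is the median of duplicate plates.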

[2] = compound: CC(C)(C)c1nc(-c2cccc(NS(=O)(=O)c3c(F)cccc3F)c2F)c(-c2ccnc(N)n2)s1 [Dabrafenib] + O=C(CCCCCCC(=O)Nc1ccccc1)NO [Vorinostat] (partner 1 µM)
Procedure, shortened: as §1

[3] = compound: CC(C)(C)c1nc(-c2cccc(NS(=O)(=O)c3c(F)cccc3F)c2F)c(-c2ccnc(N)n2)s1 [Dabrafenib] + Cc1nc(Nc2ncc(C(=O)Nc3c(C)cccc3Cl)s2)cc(N2CCN(CCO)CC2)n1 [Dasatinib] (partner 0.075 µM)
Procedure, shortened: as §1

[4] = compound: NC(=O)c1ccc(N(C(N)=O)c2c(F)cccc2F)nc1-c1ccc(F)cc1F [VX-702] + Cc1cc(Nc2cc(N3CCN(C)CC3)nc(Sc3ccc(NC(=O)C4CC4)cc3)n2)n[nH]1 [Tozasertib] (partner 0.1 µM)
Procedure, shortened: as §1

[5] = compound: NC(=O)c1ccc(N(C(N)=O)c2c(F)cccc2F)nc1-c1ccc(F)cc1F [VX-702] + Nc1ncn([C@H]2C[C@H](O)[C@@H](CO)O2)c(=O)n1 [Decitabine] (partner 2 µM)
Procedure, shortened: as §1

SW 900 showed a relative viability ([1]; first compound 0.02 µM) of 0.577, a relative viability ([1]; first compound 0.2 µM) of 0.566 and a relative viability ([1]; first compound 0.6325 µM) of 0.575. It also gave a relative viability ([1]; first compound 2 µM) of 0.539, a relative viability ([2]; first compound 0.009487 µM) of 0.455 and a relative viability ([2]; first compound 0.09487 µM) of 0.714. The relative viability ([2]; first compound 0.3 µM) was 0.596, the relative viability ([3]; first compound 0.009487 µM) was 0.581 and the relative viability ([3]; first compound 0.03 µM) was 0.371. For the same cell line, the relative viability ([3]; first compound 0.3 µM) was 0.705, the relative viability ([4]; first compound 0.02 µM) was 0.87 and the relative viability ([4]; first compound 0.2 µM) was 0.494. The relative viability ([4]; first compound 0.6325 µM) was 0.621, the relative viability ([4]; first compound 2 µM) was 0.636 and the relative viability ([5]; first compound 0.02 µM) was 0.47. The relative viability ([5]; first compound 0.2 µM) was 0.375, the relative viability ([5]; first compound 0.6325 µM) was 0.393 and the relative viability ([5]; first compound 2 µM) was 0.425.
